The text below walks through data of patent US20250066341A1 (CHIESI FARMACEUTICI S.P.A., priority 2021, published 2025).

The structures appear in SMILES notation.

A word on the IC50: it is the concentration needed to halve the response being measured.

For this test, the target named is T1, human recombinant LPA1 expressed in CHO cells (Homo sapiens, UniProt Q92633).
T1 construct: expressed in transfected cells; host or cells: CHO cells (CHO-hLPA1 cell line)
T1 sequence (Q92633 whole entry): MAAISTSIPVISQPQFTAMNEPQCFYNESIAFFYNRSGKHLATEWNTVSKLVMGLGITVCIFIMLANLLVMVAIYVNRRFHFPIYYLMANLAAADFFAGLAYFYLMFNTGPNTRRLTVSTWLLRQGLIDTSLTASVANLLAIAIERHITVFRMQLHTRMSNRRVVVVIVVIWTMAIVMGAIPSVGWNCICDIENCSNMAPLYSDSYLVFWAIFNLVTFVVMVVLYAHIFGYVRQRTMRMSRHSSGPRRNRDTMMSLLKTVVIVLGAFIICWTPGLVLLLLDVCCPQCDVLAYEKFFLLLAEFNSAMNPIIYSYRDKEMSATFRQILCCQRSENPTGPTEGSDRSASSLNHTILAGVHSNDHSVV
As to the kind of experiment: FLIPR calcium mobilization assay, LPA1 antagonism in CHO-hLPA1 cells. It counts as cell-based. Conditions: inhibition of LPA EC80 Ca2+ response, 30 min pre-incubation, expressed as range of activity. Put shortly:
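CHO-hLPA1 cells loaded with 5 μM Cal-520 AM plus 2.5 mM probenecid, 30 min at 37 °C, then pre-incubated 30 min at 37 °C with antagonist (11-point CRC, 0.5% DMSO final) before LPA at EC80. Baseline-subtracted peak fluorescence normalised to % inhibition; pIC50 from four-parameter logistic fit.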
(Calcium assays in cells follow changes in intracellular calcium, usually with a dye or a luminescent sensor.)
Take `Cc1nc(-c2cnn(C)c2CNc2nccc(-c3ccccc3)n2)ccc1OC[C@H]1CCCC[C@@H]1C(=O)O` [Compound 61, (1S,2S)-2-(((2-methyl-6-(1-methyl-5-(((4-phenylpyrimidin-2-yl)amino)methyl)-1H-pyrazol-4-yl)pyridin-3-yl)oxy)methyl)cyclohexane-1-carboxylic acid]: the IC50 was less than 50 nM.
The same measure for `Cc1nc(-c2nnn(C)c2Nc2cncc(OC(C)C)n2)ccc1OC[C@H]1CCCC[C@@H]1C(=O)O` [Compound 71, (1S,2S)-2-(((6-(5-((6-isopropoxypyrazin-2-yl)amino)-1-methyl-1H-1,2,3-triazol-4-yl)-2-methylpyridin-3-yl)oxy)methyl)cyclohexane-1-carboxylic acid]: less than 50 nM; for `Cc1noc(-c2ccc(NC(=O)C3CCCCC3C(=O)O)cc2)c1Nc1cncc(OC(C)C)n1` (racemic) [Compound 16, 2-((4-(4-((6-isopropoxypyrazin-2-yl)amino)-3-methylisoxazol-5-yl)phenyl)carbamoyl)cyclohexane-1-carboxylic acid]: less than 50 nM.
The same measure for `CCCN(C)C(=O)OCc1c(C)noc1-c1ccc(OC[C@H]2CCCC[C@@H]2C(=O)O)c(C)n1` [Compound 75, (1S,2S)-2-(((2-methyl-6-(3-methyl-4-(((methyl(propyl)carbamoyl)oxy)methyl)isoxazol-5-y1)pyridin-3-yl)oxy)methyl)cyclohexane-1-carboxylic acid]: less than 50 nM; for `Cc1noc(-c2ccc(OC[C@H]3CCCC[C@@H]3C(=O)O)cc2)c1NC(=O)O[C@H](C)c1cccnc1` [Compound 59, (1S,2S)-2-((4-(3-methyl-4-((((R)-1-(pyridin-3-yl)ethoxy)carbonyl)amino)isoxazol-5-yl)phenoxy)methyl)cyclohexane-1-carboxylic acid]: 50 to 250 nM; for `Cc1nc(-c2onc(C)c2CNC(=O)OCc2ccccc2)ccc1NC(=O)[C@H]1CCCC[C@@H]1C(=O)O` [Compound 32, (1S,2S)-2-((6-(4-((((benzyloxy)carbonyl)amino)methyl)-3-methylisoxazol-5-yl)-2-methylpyridin-3-yl)carbamoyl)cyclohexane-1-carboxylic acid]: 50 to 250 nM.
With `Cc1nc(-c2onc(C)c2NS(=O)(=O)CCc2ccc(F)cc2)ccc1NC(=O)[C@H]1CCCC[C@@H]1C(=O)O` [Compound 27] the figure was 50 to 250 nM; with `Cc1nc(-c2nnn(C)c2CNC(=O)O[C@H](C)c2cccnc2Cl)ccc1OC[C@H]1CCCC[C@@H]1C(=O)O` [Compound 63, (1S,2S)-2-(((6-(5-(((((R)-1-(2-chloropyridin-3-yl)ethoxy)carbonyl)amino)methyl)-1-methyl-1H-1,2,3-triazol-4-yl)-2-methylpyridin-3-yl)oxy)methyl)cyclohexane-1-carboxylic acid], less than 50 nM; with `Cc1nc(-c2cnn(C)c2CNc2nccc(-c3ccccc3)n2)ccc1NC(=O)[C@H]1CCCC[C@@H]1C(=O)O` [Compound 19, (1S,2S)-2-((2-methyl-6-(1-methyl-5-(((4-phenylpyrimidin-2-yl)amino)methyl)-1H-pyrazol-4-yl)pyridin-3-yl)carbamoyl)cyclohexane-1-carboxylic acid], less than 50 nM.
Consider `Cc1noc(-c2ccc(OCC3CCCCC3C(=O)O)cn2)c1NC(=O)O[C@H](C)c1ccccc1Cl` (single isomer, unassigned) [Compound 81], for which the IC50 was less than 50 nM.
The same measure for `Cc1nc(-c2onc(C)c2NS(=O)(=O)c2ccccc2)ccc1OC[C@H]1CCCC[C@@H]1C(=O)O` [Compound 56, (1S,2S)-2-(((2-methyl-6-(3-methyl-4-(phenylsulfonamido)isoxazol-5-yl)pyridin-3-yl)oxy)methyl)cyclohexane-1-carboxylic acid]: 250 to 600 nM.
Consider `CCC[C@@H](C)OC(=O)Nc1c(-c2ccc(OC[C@H]3CCCC[C@@H]3C(=O)O)c(C)n2)nnn1C` [Compound 68, (1S,2S)-2-(((2-methyl-6-(1-methyl-5-(((((R)-pentan-2-yl)oxy)carbonyl)amino)-1H-1,2,3-triazol-4-yl)pyridin-3-yl)oxy)methyl)cyclohexane-1-carboxylic acid], for which the IC50 is less than 50 nM.
With `CCOc1ccnc(NCc2c(C)noc2-c2ccc(NC(=O)[C@H]3CCCC[C@@H]3C(=O)O)c(C)n2)n1` [Compound 36, (1S,2S)-2-((6-(4-(((4-ethoxypyrimidin-2-yl)amino)methyl)-3-methylisoxazol-5-yl)-2-methylpyridin-3-yl)carbamoyl)cyclohexane-1-carboxylic acid] the figure was 50 to 250 nM.
With `Cc1nc(-c2onc(C)c2NS(=O)(=O)CCc2ccccc2F)ccc1NC(=O)[C@H]1CCCC[C@@H]1C(=O)O` [Compound 24, (1S,2S)-2-((6-(4-((2-(2-fluorophenyl)ethyl)sulfonamido)-3-methylisoxazol-5-yl)-2-methylpyridin-3-yl)carbamoyl)cyclohexane-1-carboxylic acid] the figure was 50 to 250 nM; with `Cc1nc(-c2onc(C)c2NS(=O)(=O)CCOc2ccc(F)cc2)ccc1OC[C@H]1CCCC[C@@H]1C(=O)O` [Compound 55, (1S,2S)-2-(((6-(4-((2-(4-fluorophenoxy)ethyl)sulfonamido)-3-methylisoxazol-5-yl)-2-methylpyridin-3-yl)oxy)methyl)cyclohexane-1-carboxylic acid], less than 50 nM.
With `Cc1noc(-c2ccc(OC[C@H]3CCCC[C@@H]3C(=O)O)cn2)c1Nc1cncc(OC(C)C)n1` [Compound 48, (1S,2S)-2-(((6-(4-((6-isopropoxypyrazin-2-yl)amino)-3-methylisoxazol-5-yl)pyridin-3-yl)oxy)methyl)cyclohexane-1-carboxylic acid] the figure was less than 50 nM.
In the case of `Cc1nc(-c2onc(C)c2CNc2nccc(-c3cccs3)n2)ccc1NC(=O)[C@H]1CCCC[C@@H]1C(=O)O` [Compound 37, (1S,2S)-2-((2-methyl-6-(3-methyl-4-(((4-(thiophen-2-yl)pyrimidin-2-yl)amino)methyl)isoxazol-5-yl)pyridin-3-yl)carbamoyl)cyclohexane-1-carboxylic acid], the IC50 was less than 50 nM.
Consider `Cc1nc(-c2onc(C)c2Nc2cncc(-c3ccncc3)n2)ccc1NC(=O)[C@H]1CCCC[C@@H]1C(=O)O` [Compound 8, (1S,2S)-2-((2-methyl-6-(3-methyl-4-((6-(pyridin-4-yl)pyrazin-2-yl)amino)isoxazol-5-yl)pyridin-3-yl)carbamoyl)cyclohexane-1-carboxylic acid], for which the IC50 lay in the range of 50 to 250 nM.
`Cc1nc(-c2nnn(C)c2CNc2nccc(OC(C)C)n2)ccc1OC[C@H]1CCCC[C@@H]1C(=O)O` [Compound 66, (1S,2S)-2-(((6-(5-(((4-isopropoxypyrimidin-2-yl)amino)methyl)-1-methyl-1H-1,2,3-triazol-4-yl)-2-methylpyridin-3-yl)oxy)methyl)cyclohexane-1-carboxylic acid]: the IC50 is less than 50 nM.
With `CCCN(C)C(=O)OCc1c(-c2ccc(OC[C@H]3CCCC[C@@H]3C(=O)O)c(C)n2)nnn1C` [Compound 76, (1S,2S)-2-(((2-methyl-6-(1-methyl-5-(((methyl(propyl)carbamoyl)oxy)methyl)-1H-1,2,3-triazol-4-yl)pyridin-3-yl)oxy)methyl)cyclohexane-1-carboxylic acid] the figure was 50 to 250 nM; with `Cc1nc(-c2onc(C)c2Nc2cncc(C3CCCC3)n2)ccc1NC(=O)[C@H]1CCCC[C@@H]1C(=O)O` [Compound 11, (1S,2S)-2-((6-(4-((6-cyclopentylpyrazin-2-yl)amino)-3-methylisoxazol-5-yl)-2-methylpyridin-3-yl)carbamoyl)cyclohexane-1-carboxylic acid], less than 50 nM.
Regarding `Cc1nc(-c2onc(C)c2NS(=O)(=O)CCCc2ccccc2)ccc1NC(=O)[C@H]1CCCC[C@@H]1C(=O)O` [Compound 26, (1S,2S)-2-((2-methyl-6-(3-methyl-4-((3-phenylpropyl)sulfonamido)isoxazol-5-yl)pyridin-3-yl)carbamoyl)cyclohexane-1-carboxylic acid], the IC50 was less than 50 nM.
